Active and inactive are the calls of the source. No rule for the calls is given here.
Test system: CCRIS mutagenicity, Ames/micronucleus/aberration tests
Assay: CCRIS mutagenicity studies
[1] = Test System: AMES SALMONELLA TYPHIMURIUM, Strain/Indicator: TA98, Metabolic Activation: NONE, Method: STANDARD PLATE
[2] = Test System: AMES SALMONELLA TYPHIMURIUM, Strain/Indicator: TA98, Metabolic Activation: RAT, LIVER, S-9, AROCLOR 1254, Method: STANDARD PLATE
[3] = Test System: AMES SALMONELLA TYPHIMURIUM, Strain/Indicator: TA100, Metabolic Activation: NONE, Method: STANDARD PLATE
[4] = Test System: AMES SALMONELLA TYPHIMURIUM, Strain/Indicator: TA100, Metabolic Activation: RAT, LIVER, S-9, AROCLOR 1254, Method: STANDARD PLATE
[5] = Test System: AMES SALMONELLA TYPHIMURIUM, Strain/Indicator: TA1535, Metabolic Activation: NONE, Method: STANDARD PLATE
[6] = Test System: AMES SALMONELLA TYPHIMURIUM, Strain/Indicator: TA1535, Metabolic Activation: RAT, LIVER, S-9, AROCLOR 1254, Method: STANDARD PLATE
[7] = Test System: AMES SALMONELLA TYPHIMURIUM, Strain/Indicator: TA1537, Metabolic Activation: NONE, Method: STANDARD PLATE
[8] = Test System: AMES SALMONELLA TYPHIMURIUM, Strain/Indicator: TA1537, Metabolic Activation: RAT, LIVER, S-9, AROCLOR 1254, Method: STANDARD PLATE
[9] = Test System: AMES SALMONELLA TYPHIMURIUM, Strain/Indicator: TA1538, Metabolic Activation: NONE, Method: STANDARD PLATE
[10] = Test System: AMES SALMONELLA TYPHIMURIUM, Strain/Indicator: TA1538, Metabolic Activation: RAT, LIVER, S-9, AROCLOR 1254, Method: STANDARD PLATE
[11] = Test System: MOUSE LYMPHOMA, Strain/Indicator: L5178Y (TK+/TK-), Metabolic Activation: NONE, Method: SUSPENSION/PLATE
[12] = Test System: AMES SALMONELLA TYPHIMURIUM, Strain/Indicator: TA98, Metabolic Activation: NONE, Method: PREINCUBATION
[13] = Test System: AMES SALMONELLA TYPHIMURIUM, Strain/Indicator: TA100, Metabolic Activation: NONE, Method: PREINCUBATION

CC1=CCC(C(C)(C)O)CC1 (stereo unspecified)
mutagenic call (Test System: AMES SALMONELLA TYPHIMURIUM, Strain/Indicator: TA97A, Metabolic Activation: NONE, Method: STANDARD PLATE): inactive; negative
mutagenic call (Test System: AMES SALMONELLA TYPHIMURIUM, Strain/Indicator: TA97A, Metabolic Activation: RAT LIVER S-9, AROCLOR 1254, Method: STANDARD PLATE): inactive; negative
mutagenic call (Test System: AMES SALMONELLA TYPHIMURIUM, Strain/Indicator: TA98, Metabolic Activation: HAMSTER, LIVER, S-9, AROCLOR 1254, Method: STANDARD PLATE): inactive; negative
mutagenic call [1]: inactive; negative
mutagenic call (Test System: AMES SALMONELLA TYPHIMURIUM, Strain/Indicator: TA98, Metabolic Activation: RAT LIVER S-9 AROCLOR 1254, Method: STANDARD PLATE): inactive; negative
mutagenic call [2]: inactive; negative
mutagenic call (Test System: AMES SALMONELLA TYPHIMURIUM, Strain/Indicator: TA100, Metabolic Activation: HAMSTER, LIVER, S-9, AROCLOR 1254, Method: STANDARD PLATE): inactive; negative
mutagenic call [3]: inactive; negative
mutagenic call (Test System: AMES SALMONELLA TYPHIMURIUM, Strain/Indicator: TA100, Metabolic Activation: RAT LIVER S-9, AROCLOR 1254, Method: STANDARD PLATE): inactive; negative
mutagenic call [4]: inactive; negative
mutagenic call (Test System: AMES SALMONELLA TYPHIMURIUM, Strain/Indicator: TA1535, Metabolic Activation: HAMSTER, LIVER, S-9, AROCLOR 1254, Method: STANDARD PLATE): inactive; negative
mutagenic call [5]: inactive; negative
mutagenic call [6]: inactive; negative
mutagenic call (Test System: AMES SALMONELLA TYPHIMURIUM, Strain/Indicator: TA1537, Metabolic Activation: HAMSTER, LIVER, S-9, AROCLOR 1254, Method: STANDARD PLATE): inactive; negative
mutagenic call [7]: inactive; negative
mutagenic call [8]: inactive; negative
mutagenic call (Test System: AMES SALMONELLA TYPHIMURIUM, Strain/Indicator: TA1538, Metabolic Activation: HAMSTER, LIVER, S-9, AROCLOR 1254, Method: STANDARD PLATE): inactive; negative
mutagenic call [9]: inactive; negative
mutagenic call [10]: inactive; negative
mutagenic call [11]: inactive; negative. reevaluation of results: negative
mutagenic call (Test System: MOUSE LYMPHOMA, Strain/Indicator: L5178Y (TK+/TK-), Metabolic Activation: RAT, LIVER, S-9, AROCLOR 1254, Method: SUSPENSION/PLATE): inactive; negative. reevaluation of results: negative

CCCS(=O)(=O)n1ncc(Cl)c(Cl)c1=O
mutagenic call [1]: inactive; negative
mutagenic call [2]: inactive; negative
mutagenic call [3]: active; positive
mutagenic call [4]: active; positive
mutagenic call [5]: inactive; negative
mutagenic call [6]: active; positive
mutagenic call [7]: inactive; negative
mutagenic call [8]: inactive; negative

CC(C)CNC(=O)C=Cc1ccc([N+](=O)[O-])o1
mutagenic call [12]: active; positive

Cc1cc(-c2cc3c(cc2F)n2c(=O)n(O)c(=O)cc2n3C2CC2)cc(C)n1
mutagenic call (Test System: AMES SALMONELLA TYPHIMURIUM, Strain/Indicator: TA102, Metabolic Activation: NONE, Method: STANDARD PLATE): active; positive

CC(C)CC(NC(=O)COc1ccc(Cl)cc1Cl)C(=O)O (stereo unspecified)
mutagenic call (Test System: AMES SALMONELLA TYPHIMURIUM, Strain/Indicator: TA97, Metabolic Activation: RAT, LIVER, S-9, AROCLOR 1254, Method: STANDARD PLATE): inactive; negative
mutagenic call (Test System: AMES SALMONELLA TYPHIMURIUM, Strain/Indicator: TA97, Metabolic Activation: WOODCHUCK, LIVER, S-9, 3-METHYLCHOLANTHRENE, Method: STANDARD PLATE): inactive; negative
mutagenic call [2]: inactive; negative
mutagenic call (Test System: AMES SALMONELLA TYPHIMURIUM, Strain/Indicator: TA98, Metabolic Activation: WOODCHUCK, LIVER, S-9, 3-METHYLCHOLANTHRENE, Method: STANDARD PLATE): inactive; negative
mutagenic call [4]: inactive; negative
mutagenic call (Test System: AMES SALMONELLA TYPHIMURIUM, Strain/Indicator: TA100, Metabolic Activation: WOODCHUCK, LIVER, S-9, 3-METHYLCHOLANTHRENE, Method: STANDARD PLATE): inactive; negative
mutagenic call [6]: inactive; negative
mutagenic call (Test System: AMES SALMONELLA TYPHIMURIUM, Strain/Indicator: TA1535, Metabolic Activation: WOODCHUCK, LIVER, S-9, 3-METHYLCHOLANTHRENE, Method: STANDARD PLATE): inactive; negative
mutagenic call [10]: inactive; negative
mutagenic call (Test System: AMES SALMONELLA TYPHIMURIUM, Strain/Indicator: TA1538, Metabolic Activation: WOODCHUCK, LIVER, S-9, 3-METHYLCHOLANTHRENE, Method: STANDARD PLATE): inactive; negative

c1ccc2cnccc2c1
mutagenic call [12]: inactive; negative
mutagenic call (Test System: AMES SALMONELLA TYPHIMURIUM, Strain/Indicator: TA98, Metabolic Activation: RAT, LIVER, S-9, Method: PREINCUBATION): inactive; negative
mutagenic call [13]: inactive; negative
mutagenic call (Test System: AMES SALMONELLA TYPHIMURIUM, Strain/Indicator: TA100, Metabolic Activation: RAT, LIVER, S-9, Method: PREINCUBATION): inactive; negative

COC(=O)[C@@H]1O[C@@H]1c1ccccc1
mutagenic call [1]: inactive; negative
mutagenic call [3]: active; positive
mutagenic call [4]: inactive; negative
mutagenic call [6]: inactive; negative
mutagenic call [8]: inactive; negative
mutagenic call [10]: inactive; negative

O=C(OCc1cccc([N+](=O)[O-])c1)c1ccccc1
mutagenic call [12]: inactive; negative
mutagenic call [13]: inactive; negative
mutagenic call (Test System: AMES SALMONELLA TYPHIMURIUM, Strain/Indicator: TA100, Metabolic Activation: RAT, LIVER, S-9, AROCLOR 1254, Method: PREINCUBATION): inactive; negative

O=C1c2ccccc2Cc2ccccc21
mutagenic call [1]: active; positive
mutagenic call [3]: inactive; negative
mutagenic call [4]: inactive; negative

Nc1cc(C(F)(F)F)ccc1Cl
mutagenic call [1]: inactive; negative
mutagenic call [2]: inactive; negative
mutagenic call [3]: inactive; negative
mutagenic call [4]: inactive; negative
mutagenic call [5]: inactive; negative
mutagenic call [6]: inactive; negative
mutagenic call [7]: inactive; negative
mutagenic call [8]: inactive; negative
mutagenic call [9]: inactive; negative
mutagenic call [10]: inactive; negative

C=C(C)C(=O)OCC(OC1=CCCC1)OC1=CCCC1
mutagenic call [11]: inactive; negative

O=C(O)c1c(Cl)cccc1Cl
mutagenic call [12]: inactive; negative
mutagenic call (Test System: AMES SALMONELLA TYPHIMURIUM, Strain/Indicator: TA98, Metabolic Activation: RAT LIVER S-9, PCB, Method: PREINCUBATION): inactive; negative
mutagenic call [13]: inactive; negative
mutagenic call (Test System: AMES SALMONELLA TYPHIMURIUM, Strain/Indicator: TA100, Metabolic Activation: RAT LIVER S-9, PCB, Method: PREINCUBATION): inactive; negative
mutagenic call (Test System: AMES SALMONELLA TYPHIMURIUM, Strain/Indicator: TA104, Metabolic Activation: NONE, Method: PREINCUBATION): inactive; negative
mutagenic call (Test System: AMES SALMONELLA TYPHIMURIUM, Strain/Indicator: TA104, Metabolic Activation: RAT LIVER S-9, PCB, Method: PREINCUBATION): inactive; negative
mutagenic call (Test System: E.COLI, Strain/Indicator: WP2 UVRA, Metabolic Activation: NONE, Method: PREINCUBATION): inactive; negative
mutagenic call (Test System: E.COLI, Strain/Indicator: WP2 UVRA, Metabolic Activation: RAT LIVER S-9, PCB, Method: PREINCUBATION): inactive; negative

— PubChem BioAssay AID1259407 (Chemical Carcinogenesis Research Information System (CCRIS), 2018)
